According to patent US6667346B2, “Method for protecting cells and tissues from ionizing radiation toxicity with α, β unsaturated aryl sulfones” (Temple University - Of The Commonwealth System of Higher …, priority 2001, dated 2003):

Assays:
HFL-1 cells = assay: Radioprotective effects on cultured normal cells (colony formation after irradiation); format: cell-based, human; settings: HFL-1 normal diploid lung fibroblasts; 2.5 to 20 micromolar for 24 hrs before 10 Gy or 15 Gy IR; colonies counted after 3 weeks
Experimental: HFL-1 cells, which are normal diploid lung fibroblasts, were plated into 24 well dishes at a cell density of 3000 cells per 10 mm^2 in DMEM completed with 10% fetal bovine serum and antibiotics. The test compounds listed in Table 16 were added to the cells 24 hours later in select concentrations from 2.5 to 20 micromolar, inclusive, using DMSO as a solvent. Control cells were treated with DMSO alone. The cells were exposed to the test compound or DMSO for 24 hrs. The cells were then irradiated with either 10 Gy (gray) or 15 Gy of ionizing radiation (IR) using a J. L. Shepherd Mark I, Model 30-1 Irradiator equipped with ^137cesium as a source.
After irradiation, the medium on the test and control cells was removed and replaced with fresh growth medium without the test compounds or DMSO. The irradiated cells were incubated for 96 hours and duplicate wells were trypsinized and replated onto 100 mm^2 tissue culture dishes. The replated cells were grown under normal conditions with one change of fresh medium for 3 weeks. The number of colonies from each 100 mm^2 culture dish, which represents the number of surviving cells, was determined by staining the dishes as described below.
To visualize and count the colonies derived from the clonal outgrowth of individual radioprotected cells, the medium was removed and the plates were washed one time with room temperature phosphate buffered saline. The cells were stained with a 1:10 diluted Modified Giemsa staining solution (Sigma) for 20 minutes. The stain was removed, and the plates were washed with tap water. The plates were air dried, the number of colonies from each plate were counted and the average from duplicate plates was determined.
A “+” indicates radioprotective activity of between 2- and 4.5-fold at the concentrations tested. Fold protection was determined by dividing the average number of colonies from the test plates by the average number of colonies on the control plates.

DU145 cells = assay: Tumor cell killing by ionizing radiation, compound added after IR treatment; format: cell-based; settings: for Interference with killing of tumor cells by ionizing radiation: continuous exposure, added immediately following 10 Gy IR
Experimental: DU145 cells were plated in 6 well dishes at a cell density of 1.0×10^5 cells per 35 mm^2 in DMEM completed with 10% fetal bovine serum and antibiotics. The plates were incubated overnight and the cells were irradiated with 10 Gy of ionizing irradiation. Compound 1 (1.0 uM and 2.0 uM) or Compound 13 (10.0 uM and 20.0 uM) in DMSO was added to the cells immediately following the IR treatment.

C57 black mice = assay: Protection of mice from radiation toxicity by pre-treatment (mortality after 8 Gy); format: in vivo
Experimental: C57 black mice age 10-12 weeks (Taconic) were divided into two treatment groups of 10 mice each. One group, designated the “200×2” group, received intraperitoneal injections of 200 micrograms (E)-4-carboxystyryl-4-chlorobenzylsulfone dissolved in DMSO (a 10 mg/Kg dose, based on 20 g mice) 18 and 6 hours before irradiation with 8 Gy gamma radiation. The other group, designated “500×2,” received intraperitoneal injections of 500 micrograms (E)-4-carboxystyryl-4-chlorobenzylsulfone dissolved in DMSO (a 25 mg/Kg dose, based on 20 g mice) 18 and 6 hours before irradiation with 8 Gy gamma radiation. A control group of 16 animals received 8 Gy gamma radiation alone.

C57 B6/J mice = assay: Radioprotective effect in mice when given after radiation exposure (mortality after 8 Gy); format: in vivo
Experimental: One group, designated the “200×2” group, received intraperitoneal injections of 200 micrograms (E)-4-carboxystyryl-4-chlorobenzylsulfone dissolved in DMSO (a 10 mg/Kg dose, assuming 20 g mice) 18 and 6 hours before irradiation with 8 Gy gamma radiation. The other group, designated “200 Post,” received an intraperitoneal injection of 200 micrograms (E)-4-carboxystyryl-4-chlorobenzylsulfone dissolved in DMSO (a 10 mg/Kg dose, based on 20 g mice) 15 minutes after irradiation with 8 Gy gamma radiation. A control group of 16 animals received 8 Gy gamma radiation alone.

[1] = "200×2" group: 10 mg/Kg i.p. 18 and 6 hours before 8 Gy gamma radiation
[2] = "500×2" group: 25 mg/Kg i.p. 18 and 6 hours before 8 Gy gamma radiation

With O=S(=O)(/C=C/c1ccc(F)cc1)Cc1ccc(Cl)cc1 [Compound 1, (E)-4-Fluorostyryl-4-chlorobenzylsulfone] the “Activity (radioprotective activity, fold protection: colonies test/control)” value (HFL-1 cells) was “+ (radioprotective activity of between 2- and 4.5-fold at the concentrations tested)”, the “Additive tumor cell killing effect” value (DU145 cells; 2.0 uM added immediately following 10 Gy IR) was “additive tumor cell killing effect” and the “Interference with killing of tumor cells by ionizing radiation” value (DU145 cells) was “did not interfere with the killing of tumor cells by ionizing radiation”.
O=S(=O)(/C=C\c1ccc(F)cc1)Cc1ccc(Cl)cc1 [Compound 7, (Z)-4-Fluorostyryl-4-chlorobenzylsulfone] was tested, and the “Activity (radioprotective activity, fold protection: colonies test/control)” value (HFL-1 cells) was “+ (radioprotective activity of between 2- and 4.5-fold at the concentrations tested)”.
O=S(=O)(/C=C/c1ccoc1)Cc1ccc(Cl)cc1Cl [Compound 8, (E)-3-Furanethenyl-2,4-dichlorobenzylsulfone] was tested, and the “Activity (radioprotective activity, fold protection: colonies test/control)” value (HFL-1 cells) was “+ (radioprotective activity of between 2- and 4.5-fold at the concentrations tested)”.
For O=C(O)c1ccc(/C=C/S(=O)(=O)Cc2ccc(Cl)cc2)cc1 [Compound 13, (E)-4-Carboxystyryl-4-chlorobenzylsulfone], the “Activity (radioprotective activity, fold protection: colonies test/control)” value (HFL-1 cells) was “+ (radioprotective activity of between 2- and 4.5-fold at the concentrations tested)”, the “Additive tumor cell killing effect” value (DU145 cells; 20 uM added immediately following 10 Gy IR) was “additive tumor cell killing effect” and the “Interference with killing of tumor cells by ionizing radiation” value (DU145 cells) was “did not interfere with the killing of tumor cells by ionizing radiation”. For the same molecule, the “Maximum mortality rate by day 40” value (C57 black mice; [1]) was “approximately 60%”, the “Mice dead at day 20 post-irradiation” value (C57 black mice; [1]) was “about 50%” and the “Maximum mortality rate by day 40” value (C57 black mice; [2]) was “about 50%”. The “Mice dead at day 20 post-irradiation” value (C57 black mice; [2]) was “about 30%”, the “Radiation toxicity in mice” value (C57 black mice; pretreatment 18 and 6 hours before 8 Gy gamma radiation) was “significantly reduced” and the “Radioprotection by post-irradiation treatment versus pre-irradiation treatment” value (C57 B6/J mice; "200 Post" vs "200×2" group, 8 Gy gamma radiation) was “not as great as seen with pre-irradiation treatment”. For the same molecule, the “Radiation-induced mortality compared with control animals” value (C57 B6/J mice; "200 Post": 10 mg/Kg i.p. 15 minutes after 8 Gy gamma radiation) was “significant delay in radiation-induced mortality”.
In the case of “(E)-2,4,6-Trimethoxystyryl-4-methoxybenzylsulfone [Compound 2]”, the “Activity (radioprotective activity, fold protection: colonies test/control)” value (HFL-1 cells) is reported as “+ (radioprotective activity of between 2- and 4.5-fold at the concentrations tested)”.
“(E)-4-Fluorostyryl-4-chlorophenylsulfone [Compound 10]” was tested, and the “Activity (radioprotective activity, fold protection: colonies test/control)” value (HFL-1 cells) was “+ (radioprotective activity of between 2- and 4.5-fold at the concentrations tested)”.
With “(E)-4-Fluorostyryl-4-cyanobenzylsulfone [Compound 6]” the “Activity (radioprotective activity, fold protection: colonies test/control)” value (HFL-1 cells) was “+ (radioprotective activity of between 2- and 4.5-fold at the concentrations tested)”.
“(E)-4-Fluorostyryl-4-trifluoromethylbenzylsulfone [Compound 5]” was tested, and the “Activity (radioprotective activity, fold protection: colonies test/control)” value (HFL-1 cells) was “+ (radioprotective activity of between 2- and 4.5-fold at the concentrations tested)”.
In the case of “(Z)-Styryl-(E)-2-methoxy-4-ethoxystyrylsulfone [Compound 11]”, the “Activity (radioprotective activity, fold protection: colonies test/control)” value (HFL-1 cells) is reported as “+ (radioprotective activity of between 2- and 4.5-fold at the concentrations tested)”.
